Three compounds from ChEMBL document CHEMBL5696442, “Discovery of type II inhibitors of TGFβ-activated kinase 1 (TAK1) and mitogen-activated protein kinase kinase kinase kinase 2 (MAP4K2)” (J Med Chem, 2015) can be followed below.

Test [1] deals with MAP/microtubule affinity-regulating kinase 3 (Homo sapiens) (UniProt P27448). Kind of test: Inhibition of MARK3 Lys1 labeling site in human A-375 cells at 0.5 uM by KiNativ Profiling analysis relative to control. The test is classed as cell-based.
In test [2] the target is Glycogen synthase kinase-3 beta (Homo sapiens) (UniProt P49841). Briefly: Inhibition of GSK3B Lys2 labeling site in human A-375 cells at 0.05 uM by KiNativ Profiling analysis relative to control. The format is cell-based.
Glycogen synthase kinase-3 beta (Homo sapiens), sequence (P49841 whole entry, looked up): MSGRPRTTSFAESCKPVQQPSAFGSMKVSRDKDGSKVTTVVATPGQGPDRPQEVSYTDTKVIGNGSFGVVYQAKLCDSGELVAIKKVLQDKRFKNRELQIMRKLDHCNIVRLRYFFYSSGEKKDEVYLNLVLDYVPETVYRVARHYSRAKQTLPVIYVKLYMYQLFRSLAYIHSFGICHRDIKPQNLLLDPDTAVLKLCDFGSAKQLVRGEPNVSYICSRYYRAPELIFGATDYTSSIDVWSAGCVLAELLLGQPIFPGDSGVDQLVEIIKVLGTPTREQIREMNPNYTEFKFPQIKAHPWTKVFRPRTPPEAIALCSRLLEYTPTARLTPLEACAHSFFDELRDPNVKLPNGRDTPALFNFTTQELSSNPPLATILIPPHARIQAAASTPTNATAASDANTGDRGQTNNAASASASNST
Test [3] has as its target T1, Serine/threonine-protein kinase Nek1 (Homo sapiens) (UniProt Q96PY6).
T1 sequence (whole entry): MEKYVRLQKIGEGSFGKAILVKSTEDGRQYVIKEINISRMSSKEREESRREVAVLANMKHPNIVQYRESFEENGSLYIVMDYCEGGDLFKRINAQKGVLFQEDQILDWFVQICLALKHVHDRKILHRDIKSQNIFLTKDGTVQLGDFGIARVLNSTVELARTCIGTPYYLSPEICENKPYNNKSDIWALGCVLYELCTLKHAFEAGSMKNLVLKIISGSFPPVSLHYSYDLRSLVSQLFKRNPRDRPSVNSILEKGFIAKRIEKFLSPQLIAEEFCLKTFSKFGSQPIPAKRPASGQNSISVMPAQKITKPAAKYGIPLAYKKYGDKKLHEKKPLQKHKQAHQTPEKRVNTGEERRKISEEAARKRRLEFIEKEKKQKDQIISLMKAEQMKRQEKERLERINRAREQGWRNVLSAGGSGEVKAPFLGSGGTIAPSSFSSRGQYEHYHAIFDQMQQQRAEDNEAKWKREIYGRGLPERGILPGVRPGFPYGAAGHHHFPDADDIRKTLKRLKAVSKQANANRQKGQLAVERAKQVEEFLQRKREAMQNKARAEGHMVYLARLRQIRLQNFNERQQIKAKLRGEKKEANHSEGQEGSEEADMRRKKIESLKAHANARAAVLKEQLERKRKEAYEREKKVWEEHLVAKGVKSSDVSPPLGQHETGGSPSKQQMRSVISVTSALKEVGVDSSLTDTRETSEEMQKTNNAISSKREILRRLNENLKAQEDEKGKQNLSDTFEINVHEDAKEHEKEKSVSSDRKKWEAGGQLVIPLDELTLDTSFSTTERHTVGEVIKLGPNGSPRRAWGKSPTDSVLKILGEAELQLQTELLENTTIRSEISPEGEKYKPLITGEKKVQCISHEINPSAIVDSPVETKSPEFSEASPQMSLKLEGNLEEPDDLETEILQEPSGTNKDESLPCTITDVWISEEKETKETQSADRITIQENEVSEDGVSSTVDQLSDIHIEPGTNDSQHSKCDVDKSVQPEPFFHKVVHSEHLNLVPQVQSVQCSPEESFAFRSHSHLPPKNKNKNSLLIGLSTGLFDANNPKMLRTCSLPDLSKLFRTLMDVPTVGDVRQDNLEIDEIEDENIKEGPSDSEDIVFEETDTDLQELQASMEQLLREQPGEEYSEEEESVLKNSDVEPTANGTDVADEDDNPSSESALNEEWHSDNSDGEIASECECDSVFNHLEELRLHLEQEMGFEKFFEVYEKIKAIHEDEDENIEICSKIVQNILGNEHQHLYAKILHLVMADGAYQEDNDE
Kind of test: Inhibition of NEK1 K2 labeling site in human Huh-7 cells at 1 uM by KiNativ Profiling analysis relative to control. The test is classed as cell-based.

The target in test [4] is Tyrosine-protein kinase receptor TYRO3 (Homo sapiens) (UniProt Q06418). Briefly: Inhibition of TYRO3 (unknown origin) at 10 uM by Ambit Kinomescan binding assay.
Tyrosine-protein kinase receptor TYRO3 (Homo sapiens), sequence (Q06418 whole entry): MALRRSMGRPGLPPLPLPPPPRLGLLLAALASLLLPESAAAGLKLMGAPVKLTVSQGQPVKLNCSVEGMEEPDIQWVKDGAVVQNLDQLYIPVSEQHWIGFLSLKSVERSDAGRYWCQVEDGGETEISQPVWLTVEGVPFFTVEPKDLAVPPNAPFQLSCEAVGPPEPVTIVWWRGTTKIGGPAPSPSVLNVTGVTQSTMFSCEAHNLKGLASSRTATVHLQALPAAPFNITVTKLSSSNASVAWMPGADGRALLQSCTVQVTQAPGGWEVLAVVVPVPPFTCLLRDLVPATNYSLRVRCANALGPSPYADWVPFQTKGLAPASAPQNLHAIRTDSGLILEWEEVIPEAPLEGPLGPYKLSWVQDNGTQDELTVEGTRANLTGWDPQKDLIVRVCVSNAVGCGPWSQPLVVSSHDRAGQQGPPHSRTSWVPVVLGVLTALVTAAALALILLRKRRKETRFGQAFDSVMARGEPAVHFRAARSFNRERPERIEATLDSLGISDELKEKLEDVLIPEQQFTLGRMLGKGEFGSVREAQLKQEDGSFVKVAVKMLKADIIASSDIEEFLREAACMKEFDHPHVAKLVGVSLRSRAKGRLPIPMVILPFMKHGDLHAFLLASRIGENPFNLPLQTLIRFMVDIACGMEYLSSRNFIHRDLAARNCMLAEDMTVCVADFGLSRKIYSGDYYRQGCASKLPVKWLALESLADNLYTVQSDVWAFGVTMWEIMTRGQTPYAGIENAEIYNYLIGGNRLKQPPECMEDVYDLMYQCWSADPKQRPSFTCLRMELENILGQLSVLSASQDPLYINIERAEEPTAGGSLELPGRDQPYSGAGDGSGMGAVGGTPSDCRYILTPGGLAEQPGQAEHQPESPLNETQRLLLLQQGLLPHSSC
For test [5], the target named is T2, Serine/threonine-protein kinase LATS1 (Homo sapiens) (UniProt O95835).
T2 sequence (whole entry): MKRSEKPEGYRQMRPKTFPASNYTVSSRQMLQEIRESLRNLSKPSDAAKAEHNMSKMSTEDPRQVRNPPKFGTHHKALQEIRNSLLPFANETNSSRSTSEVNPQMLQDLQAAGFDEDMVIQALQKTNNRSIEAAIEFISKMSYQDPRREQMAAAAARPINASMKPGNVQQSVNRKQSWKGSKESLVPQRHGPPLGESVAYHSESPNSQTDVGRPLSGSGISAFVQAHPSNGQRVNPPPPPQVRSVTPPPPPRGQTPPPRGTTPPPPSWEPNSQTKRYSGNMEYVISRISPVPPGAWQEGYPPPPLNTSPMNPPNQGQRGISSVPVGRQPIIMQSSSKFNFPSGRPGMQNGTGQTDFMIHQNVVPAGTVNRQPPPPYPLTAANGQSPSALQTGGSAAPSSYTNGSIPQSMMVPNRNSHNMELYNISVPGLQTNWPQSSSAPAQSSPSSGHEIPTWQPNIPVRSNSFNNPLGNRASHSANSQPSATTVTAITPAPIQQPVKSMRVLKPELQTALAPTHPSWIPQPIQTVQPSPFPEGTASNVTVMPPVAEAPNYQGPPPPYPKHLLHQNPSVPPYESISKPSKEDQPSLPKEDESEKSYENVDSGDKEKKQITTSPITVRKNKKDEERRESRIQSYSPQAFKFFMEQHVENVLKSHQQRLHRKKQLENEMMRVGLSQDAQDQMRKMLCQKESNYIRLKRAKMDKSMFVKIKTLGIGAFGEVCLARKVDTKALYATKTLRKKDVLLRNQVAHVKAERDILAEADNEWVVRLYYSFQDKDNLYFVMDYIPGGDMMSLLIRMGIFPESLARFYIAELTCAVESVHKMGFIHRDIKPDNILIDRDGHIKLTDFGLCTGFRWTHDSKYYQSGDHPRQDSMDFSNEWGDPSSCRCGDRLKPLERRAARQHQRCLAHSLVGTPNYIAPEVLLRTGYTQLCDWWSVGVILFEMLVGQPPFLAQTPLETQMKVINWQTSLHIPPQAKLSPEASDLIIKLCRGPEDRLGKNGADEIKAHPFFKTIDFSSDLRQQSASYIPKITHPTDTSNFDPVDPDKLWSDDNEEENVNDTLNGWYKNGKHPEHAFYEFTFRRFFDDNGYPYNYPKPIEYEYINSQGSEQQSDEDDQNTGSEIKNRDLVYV
Briefly: Inhibition of LATS1 Lys2 labeling site in human A-375 cells at 5 uM by KiNativ Profiling analysis relative to control. The format is cell-based.

The target of test [6] is Dual specificity mitogen-activated protein kinase kinase 1 (Homo sapiens) (UniProt Q02750). Briefly: Inhibition of MAP2K1 Lys2 labeling site harbouring IMHRDVKPSNILVNSR in human Huh-7 cells at 1 uM by KiNativ Profiling analysis relative to control. The format is cell-based.
Dual specificity mitogen-activated protein kinase kinase 1 (Homo sapiens), sequence (Q02750 whole entry): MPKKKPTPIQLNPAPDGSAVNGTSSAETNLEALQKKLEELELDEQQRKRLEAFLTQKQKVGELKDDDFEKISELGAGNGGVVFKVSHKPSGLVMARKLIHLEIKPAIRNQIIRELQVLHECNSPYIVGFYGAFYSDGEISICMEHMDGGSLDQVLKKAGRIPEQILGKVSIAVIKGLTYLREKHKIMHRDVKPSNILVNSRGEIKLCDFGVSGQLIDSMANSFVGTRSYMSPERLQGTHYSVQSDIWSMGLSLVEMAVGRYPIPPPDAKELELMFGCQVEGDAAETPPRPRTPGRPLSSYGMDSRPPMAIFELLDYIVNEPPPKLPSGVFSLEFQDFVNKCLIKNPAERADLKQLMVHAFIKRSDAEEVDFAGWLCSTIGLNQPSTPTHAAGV

The source made the active and inactive calls. No cut-off for these calls is given here.

MAP/microtubule affinity-regulating kinase 3 (Homo sapiens), sequence (P27448 whole entry, looked up): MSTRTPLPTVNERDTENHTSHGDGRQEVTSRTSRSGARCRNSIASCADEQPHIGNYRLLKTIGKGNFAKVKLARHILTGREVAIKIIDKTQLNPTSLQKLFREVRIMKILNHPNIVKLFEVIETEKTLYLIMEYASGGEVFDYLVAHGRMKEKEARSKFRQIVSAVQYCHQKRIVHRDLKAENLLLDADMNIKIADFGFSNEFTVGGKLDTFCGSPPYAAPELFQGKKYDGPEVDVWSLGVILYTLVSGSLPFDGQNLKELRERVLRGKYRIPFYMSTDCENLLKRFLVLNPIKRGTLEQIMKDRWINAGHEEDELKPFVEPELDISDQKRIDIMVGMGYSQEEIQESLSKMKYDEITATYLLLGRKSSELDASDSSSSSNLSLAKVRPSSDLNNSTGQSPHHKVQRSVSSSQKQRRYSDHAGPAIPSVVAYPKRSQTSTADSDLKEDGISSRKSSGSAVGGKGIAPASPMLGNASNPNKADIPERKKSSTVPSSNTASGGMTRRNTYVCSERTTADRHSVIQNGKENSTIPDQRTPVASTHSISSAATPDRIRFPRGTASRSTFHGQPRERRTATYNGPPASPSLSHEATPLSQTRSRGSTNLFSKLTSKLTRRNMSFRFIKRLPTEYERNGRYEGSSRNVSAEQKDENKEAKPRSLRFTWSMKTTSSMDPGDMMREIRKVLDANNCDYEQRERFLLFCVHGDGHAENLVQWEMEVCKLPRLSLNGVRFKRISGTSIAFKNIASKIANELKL

What is called inhibition is the drop in the measured response relative to a control, in per cent. `CCN1CCN(Cc2ccc(NC(=O)c3ccc(C)c(/C=C/c4cnc5[nH]ccc5c4OC)c3)cc2C(F)(F)F)CC1`: the figures for the inhibition in test [1] and in test [2] were 12.3% and 29.8%, respectively.

For the compound `CCN1CCN(Cc2ccc(NC(=O)c3ccc(C)c(Oc4ccnc5[nH]ccc45)c3)cc2C(F)(F)F)CC1`, the inhibition in test [3] is -5.8%; in test [5], -6.4%. For the same compound, the inhibition entry in test [4] was “inactive”.

For `CNc1cc(Oc2cc(C(=O)Nc3cc(N4CCN(C)CC4)cc(C(F)(F)F)c3)ccc2C)ncn1`, the inhibition in test [6] came out at 16.6%.
